# Assay results as given in patent US8802895B2, “Amide derivatives of benzene-sulfonanilide, pharmaceutical composition thereof and method for cancer treatment using the same” (Cleveland State University, priority 2010, dated 2014).
# How the values were obtained:
# Format in all cases: cell-based
# HCT-116 = assay: NCIDTP 60 cancer cell lines screening, Colon Cancer panel
# T-47D = assay: NCIDTP 60 cancer cell lines screening, Breast Cancer panel
# 786-0 = assay: NCIDTP 60 cancer cell lines screening, Renal Cancer panel
# HT29 = assay: NCIDTP 60 cancer cell lines screening, Colon Cancer panel
# MDA-MB-435 = assay: NCIDTP 60 cancer cell lines screening, Melanoma panel
# SF-295 = assay: NCIDTP 60 cancer cell lines screening, CNS Cancer panel
# SK-MEL-28 = assay: NCIDTP 60 cancer cell lines screening, Melanoma panel
# NCI-H226 = assay: NCIDTP 60 cancer cell lines screening, Non-Small Cell Lung Cancer panel
# OVCAR-8 = assay: NCIDTP 60 cancer cell lines screening, Ovarian Cancer panel
# IGROV1 = assay: as above
# MALME-3M = assay: NCIDTP 60 cancer cell lines screening, Melanoma panel
# EKVX = assay: NCIDTP 60 cancer cell lines screening, Non-Small Cell Lung Cancer panel
# TK-10 = assay: NCIDTP 60 cancer cell lines screening, Renal Cancer panel
# HCT-15 = assay: NCIDTP 60 cancer cell lines screening, Colon Cancer panel
# UACC-62 = assay: NCIDTP 60 cancer cell lines screening, Melanoma panel
# UO-31 = assay: NCIDTP 60 cancer cell lines screening, Renal Cancer panel
structure (smiles),measurement,setting,value
"Cc1ccc(C)c(COc2cc(NC(=O)c3ccc4c(c3)OCO4)ccc2N(C)S(C)(=O)=O)c1 [Compound #10, Benzo[1,3]dioxole-5-carboxylic acid [3-(2,5-dimethyl-benzyloxy)-4-(methanesulfonyl-methyl-amino)-phenyl]-amide]",TGI,HCT-116; HCT-116,1.02E−6 Molar
same,Percent Growth,"HCT-116; HCT-116, Log10 Concentration −4.0 Molar",−47%
same,Percent Growth,"HCT-116; HCT-116, Log10 Concentration −5.0 Molar",−47%
same,Percent Growth,"HCT-116; HCT-116, Log10 Concentration −7.0 Molar",45%
same,Percent Growth,"HCT-116; HCT-116, Log10 Concentration −8.0 Molar",89%
same,GI50,"HCT-116; Homo sapiens, HCT-116",75.3 nM
same,CC50,"HCT-116; Homo sapiens, HCT-116, read-out: LC50",> 100000 nM
same,CC50,"T-47D; Homo sapiens, T47D, read-out: LC50",> 100000 nM
same,GI50,"T-47D; Homo sapiens, T47D, T-47D",682 nM
same,TGI,T-47D; T-47D,>1.00E−4 Molar
same,Percent Growth,"T-47D; T-47D, Log10 Concentration −4.0 Molar",27%
same,Percent Growth,"T-47D; T-47D, Log10 Concentration −5.0 Molar",29%
same,Percent Growth,"T-47D; T-47D, Log10 Concentration −6.0 Molar",45%
same,Percent Growth,"T-47D; T-47D, Log10 Concentration −7.0 Molar",77%
same,Percent Growth,"T-47D; T-47D, Log10 Concentration −8.0 Molar",89%
same,TGI,786-0; 786-0,1.11E−6 Molar
same,Percent Growth,"786-0; 786-0, Log10 Concentration −4.0 Molar",−14%
same,Percent Growth,"786-0; 786-0, Log10 Concentration −5.0 Molar",−22%
same,Percent Growth,"786-0; 786-0, Log10 Concentration −6.0 Molar",1%
same,Percent Growth,"786-0; 786-0, Log10 Concentration −7.0 Molar",69%
same,Percent Growth,"786-0; 786-0, Log10 Concentration −8.0 Molar",91%
same,GI50,"786-0; Homo sapiens, 786-0",191 nM
same,CC50,"786-0; Homo sapiens, 786-0, read-out: LC50",> 100000 nM
same,TGI,HT29; HT29,4.19E−7 Molar
same,Percent Growth,"HT29; HT29, Log10 Concentration −4.0 Molar",−48%
same,Percent Growth,"HT29; HT29, Log10 Concentration −5.0 Molar",−48%
same,Percent Growth,"HT29; HT29, Log10 Concentration −6.0 Molar",−26%
same,Percent Growth,"HT29; HT29, Log10 Concentration −7.0 Molar",44%
same,Percent Growth,"HT29; HT29, Log10 Concentration −8.0 Molar",101%
same,CC50,"HT29; Homo sapiens, HT-29, read-out: LC50",> 100000 nM
same,GI50,"HT29; Homo sapiens, HT-29, HT29",77.2 nM
same,"inhibition of cancer cell growth (NCI screening results, in words)",HT29; many types of cancer cell including HT29 colon cancer cells,very potent to inhibit the growth
same,GI50,"MDA-MB-435; Homo sapiens, MDA-MB-435",28.5 nM
same,CC50,"MDA-MB-435; Homo sapiens, MDA-MB-435, read-out: LC50",> 100000 nM
same,TGI,MDA-MB-435; MDA-MB-435,9.14E−8 Molar
same,Percent Growth,"MDA-MB-435; MDA-MB-435, Log10 Concentration −4.0 Molar",−17%
same,Percent Growth,"MDA-MB-435; MDA-MB-435, Log10 Concentration −5.0 Molar",−28%
same,Percent Growth,"MDA-MB-435; MDA-MB-435, Log10 Concentration −6.0 Molar",−30%
same,Percent Growth,"MDA-MB-435; MDA-MB-435, Log10 Concentration −7.0 Molar",−4%
same,Percent Growth,"MDA-MB-435; MDA-MB-435, Log10 Concentration −8.0 Molar",95%
same,GI50,"SF-295; Homo sapiens, SF-295",98.3 nM
same,CC50,"SF-295; Homo sapiens, SF-295, read-out: LC50",> 100000 nM
same,TGI,SF-295; SF-295,6.26E−7 Molar
same,Percent Growth,"SF-295; SF-295, Log10 Concentration −4.0 Molar",−15%
same,Percent Growth,"SF-295; SF-295, Log10 Concentration −5.0 Molar",−16%
same,Percent Growth,"SF-295; SF-295, Log10 Concentration −6.0 Molar",−13%
same,Percent Growth,"SF-295; SF-295, Log10 Concentration −7.0 Molar",50%
same,Percent Growth,"SF-295; SF-295, Log10 Concentration −8.0 Molar",92%
same,GI50,"SK-MEL-28; Homo sapiens, SK-MEL-28",692 nM
same,CC50,"SK-MEL-28; Homo sapiens, SK-MEL-28, read-out: LC50",> 100000 nM
same,TGI,SK-MEL-28; SK-MEL-28,>1.00E−4 Molar
same,Percent Growth,"SK-MEL-28; SK-MEL-28, Log10 Concentration −4.0 Molar",50%
same,Percent Growth,"SK-MEL-28; SK-MEL-28, Log10 Concentration −5.0 Molar",49%
same,Percent Growth,"SK-MEL-28; SK-MEL-28, Log10 Concentration −6.0 Molar",44%
same,Percent Growth,"SK-MEL-28; SK-MEL-28, Log10 Concentration −7.0 Molar",83%
same,Percent Growth,"SK-MEL-28; SK-MEL-28, Log10 Concentration −8.0 Molar",91%
same,GI50,"NCI-H226; Homo sapiens, NCI-H226",686 nM
same,CC50,"NCI-H226; Homo sapiens, NCI-H226, read-out: LC50",> 100000 nM
same,TGI,NCI-H226; NCI-H226,>1.00E−4 Molar
same,Percent Growth,"NCI-H226; NCI-H226, Log10 Concentration −4.0 Molar",16%
same,Percent Growth,"NCI-H226; NCI-H226, Log10 Concentration −5.0 Molar",20%
same,Percent Growth,"NCI-H226; NCI-H226, Log10 Concentration −6.0 Molar",42%
same,Percent Growth,"NCI-H226; NCI-H226, Log10 Concentration −7.0 Molar",93%
same,Percent Growth,"NCI-H226; NCI-H226, Log10 Concentration −8.0 Molar",87%
same,GI50,"OVCAR-8; Homo sapiens, OVCAR-8",265 nM
same,CC50,"OVCAR-8; Homo sapiens, OVCAR-8, read-out: LC50",> 100000 nM
same,TGI,OVCAR-8; OVCAR-8,>1.00E−4 Molar
same,Percent Growth,"OVCAR-8; OVCAR-8, Log10 Concentration −4.0 Molar",6%
same,Percent Growth,"OVCAR-8; OVCAR-8, Log10 Concentration −5.0 Molar",8%
same,Percent Growth,"OVCAR-8; OVCAR-8, Log10 Concentration −6.0 Molar",10%
same,Percent Growth,"OVCAR-8; OVCAR-8, Log10 Concentration −7.0 Molar",80%
same,Percent Growth,"OVCAR-8; OVCAR-8, Log10 Concentration −8.0 Molar",94%
same,CC50,"IGROV1; Homo sapiens, IGROV-1, read-out: LC50",> 100000 nM
same,GI50,"IGROV1; Homo sapiens, IGROV-1, IGROV1",237 nM
same,TGI,IGROV1; IGROV1,>1.00E−4 Molar
same,Percent Growth,"IGROV1; IGROV1, Log10 Concentration −4.0 Molar",13%
same,Percent Growth,"IGROV1; IGROV1, Log10 Concentration −5.0 Molar",13%
same,Percent Growth,"IGROV1; IGROV1, Log10 Concentration −6.0 Molar",18%
same,Percent Growth,"IGROV1; IGROV1, Log10 Concentration −7.0 Molar",69%
same,Percent Growth,"IGROV1; IGROV1, Log10 Concentration −8.0 Molar",92%
same,GI50,"MALME-3M; Homo sapiens, Malme-3M",229 nM
same,CC50,"MALME-3M; Homo sapiens, Malme-3M, read-out: LC50",> 100000 nM
same,TGI,MALME-3M; MALME-3M,>1.00E−4 Molar
same,Percent Growth,"MALME-3M; MALME-3M, Log10 Concentration −4.0 Molar",49%
same,Percent Growth,"MALME-3M; MALME-3M, Log10 Concentration −5.0 Molar",40%
same,Percent Growth,"MALME-3M; MALME-3M, Log10 Concentration −6.0 Molar",31%
same,Percent Growth,"MALME-3M; MALME-3M, Log10 Concentration −7.0 Molar",61%
same,Percent Growth,"MALME-3M; MALME-3M, Log10 Concentration −8.0 Molar",87%
same,TGI,EKVX,>1.00E−4 Molar
same,GI50,EKVX; Homo sapiens,598 nM
same,CC50,"EKVX; Homo sapiens, read-out: LC50",> 100000 nM
same,Percent Growth,EKVX; Log10 Concentration −4.0 Molar,33%
same,Percent Growth,EKVX; Log10 Concentration −5.0 Molar,25%
same,Percent Growth,EKVX; Log10 Concentration −6.0 Molar,39%
same,Percent Growth,EKVX; Log10 Concentration −7.0 Molar,88%
same,Percent Growth,EKVX; Log10 Concentration −8.0 Molar,94%
same,GI50,"TK-10; Homo sapiens, TK-10",354 nM
same,CC50,"TK-10; Homo sapiens, TK-10, read-out: LC50",> 100000 nM
same,TGI,TK-10; TK-10,>1.00E−4 Molar
same,Percent Growth,"TK-10; TK-10, Log10 Concentration −4.0 Molar",9%
same,Percent Growth,"TK-10; TK-10, Log10 Concentration −5.0 Molar",6%
same,Percent Growth,"TK-10; TK-10, Log10 Concentration −6.0 Molar",18%
same,Percent Growth,"TK-10; TK-10, Log10 Concentration −7.0 Molar",88%
same,Percent Growth,"TK-10; TK-10, Log10 Concentration −8.0 Molar",92%
same,TGI,HCT-15; HCT-15,>1.00E−4 Molar
same,Percent Growth,"HCT-15; HCT-15, Log10 Concentration −4.0 Molar",17%
same,Percent Growth,"HCT-15; HCT-15, Log10 Concentration −5.0 Molar",17%
same,Percent Growth,"HCT-15; HCT-15, Log10 Concentration −6.0 Molar",22%
same,Percent Growth,"HCT-15; HCT-15, Log10 Concentration −7.0 Molar",74%
same,Percent Growth,"HCT-15; HCT-15, Log10 Concentration −8.0 Molar",96%
same,GI50,"HCT-15; Homo sapiens, HCT-15",289 nM
same,CC50,"HCT-15; Homo sapiens, HCT-15, read-out: LC50",> 100000 nM
same,GI50,"UACC-62; Homo sapiens, UACC-62",414 nM
same,CC50,"UACC-62; Homo sapiens, UACC-62, read-out: LC50",> 100000 nM
same,TGI,UACC-62; UACC-62,>1.00E−4 Molar
same,Percent Growth,"UACC-62; UACC-62, Log10 Concentration −4.0 Molar",14%
same,Percent Growth,"UACC-62; UACC-62, Log10 Concentration −5.0 Molar",15%
same,Percent Growth,"UACC-62; UACC-62, Log10 Concentration −6.0 Molar",37%
same,Percent Growth,"UACC-62; UACC-62, Log10 Concentration −7.0 Molar",71%
same,Percent Growth,"UACC-62; UACC-62, Log10 Concentration −8.0 Molar",94%
same,GI50,"UO-31; Homo sapiens, UO-31",395 nM
same,CC50,"UO-31; Homo sapiens, UO-31, read-out: LC50",> 100000 nM
same,TGI,UO-31; UO-31,>1.00E−4 Molar
same,Percent Growth,"UO-31; UO-31, Log10 Concentration −4.0 Molar",14%
same,Percent Growth,"UO-31; UO-31, Log10 Concentration −5.0 Molar",12%
same,Percent Growth,"UO-31; UO-31, Log10 Concentration −6.0 Molar",35%
same,Percent Growth,"UO-31; UO-31, Log10 Concentration −7.0 Molar",73%
same,Percent Growth,"UO-31; UO-31, Log10 Concentration −8.0 Molar",78%
